Experimental findings from ChEMBL document CHEMBL1201862, “PubChem BioAssay data set” (2004) are described below.

Each structure is given as a SMILES string.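 A five-concentration, 48-hour dose response in 96-well plates underlies each endpoint, interpolated linearly between surrounding concentrations. The concentration for 50% growth inhibition is given as GI50.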 The source made the active and inactive calls. Cut-off read from the data, not from the text of the source: active = GI50 up to about 1.1 µM and inactive = higher.

Among the test systems are HCC 2998; SF-539; TK-10; SF-295; A498; COLO 205; EKVX; Malme-3M; UACC-257; HOP-92; SF-268; LOX IMVI; OVCAR-4; SK-MEL-28; HCT-15; HOP-62; NCI/ADR-RES; MDA-MB-435; MCF7.
Holding throughout (assay): DTP human tumour cell line panel, 48 h

For `CN(C)NC(=O)/C(=C/c1ccc(Cl)cc1)NC(=O)c1ccccc1`, the GI50 was > 100 µM (inactive) in the test with HCC 2998; > 100 µM (inactive) with SF-539; > 100 µM (inactive) in the test with TK-10; > 100 µM (inactive) in the test with SF-295; > 100 µM (inactive) in the test with A498; 45.2 µM (inactive) in the test with COLO 205. The GI50 is > 100 µM (inactive) in the test on EKVX; > 100 µM (inactive) in the test with Malme-3M; > 100 µM (inactive) in the test with UACC-257; > 100 µM (inactive) in the test with HOP-92; > 100 µM (inactive) in the test with SF-268; 48.3 µM (inactive) with LOX IMVI. In addition, the GI50 is > 100 µM (inactive) in the test with OVCAR-4, > 100 µM (inactive) in the test on SK-MEL-28, 32 µM with HCT-15 and > 100 µM (inactive) in the test with HOP-62.

With `NCc1ccc(C(=O)O)cc1` [AMINOMETHYLBENZOIC ACID], the GI50 in the test with HCC 2998, in the test with TK-10, in the test with SF-295, with A498, with EKVX and in the test on Malme-3M was > 100 µM (inactive) throughout. Further, the GI50 in the test on UACC-257, with HOP-92, in the test with NCI/ADR-RES, with SF-268, in the test with MDA-MB-435 and in the test with LOX IMVI was > 100 µM (inactive) in each case. For the same compound, the GI50 in the test with OVCAR-4 is > 100 µM (inactive); in the test on SK-MEL-28, > 100 µM (inactive); in the test with HCT-15 it was > 100 µM; in the test with HOP-62 it was > 100 µM (inactive).

As for `c1ccc2c(c1)nnn2CNc1ccc(N2CCCCC2)cc1`, the GI50 in the test on HCC 2998, in the test with SF-539, in the test with TK-10, with SF-295, with A498 and with COLO 205 was > 100 µM (inactive) each time. Besides, the GI50 in the test on EKVX, in the test on Malme-3M, with UACC-257, in the test on HOP-92, with SF-268 and in the test with LOX IMVI was > 100 µM (inactive) in each case. Further, the GI50 in the test with OVCAR-4 is > 100 µM (inactive); with SK-MEL-28, > 100 µM (inactive); in the test with HCT-15 it was > 100 µM; in the test with HOP-62, > 100 µM (inactive).

With `COC(=O)C1CC(C(=O)OC)c2nc3cc(C)ccc3nc21` (configuration not stated), the GI50 with HCC 2998, in the test on SF-539, in the test on TK-10, with SF-295, in the test with A498 and in the test on COLO 205 was > 100 µM (inactive) each time. In addition, the GI50 was > 100 µM (inactive) with EKVX; > 100 µM (inactive) with Malme-3M; 58.3 µM (inactive) in the test on UACC-257; > 100 µM (inactive) in the test with HOP-92; > 100 µM (inactive) in the test on SF-268; > 100 µM (inactive) in the test on LOX IMVI. The GI50 with OVCAR-4 was > 100 µM (inactive); in the test on SK-MEL-28, > 100 µM (inactive); in the test on HCT-15, > 100 µM; in the test on HOP-62, > 100 µM (inactive).

Consider `COC(=O)c1cc2c3c(ccc2[nH]1)N(C(=O)c1cc2c4c(ccc2[nH]1)N(C(=O)c1cc2c5c(ccc2[nH]1)N(C(N)=O)CC5)CC4)CC3`, for which the GI50 with HCC 2998 is 5.45 µM (inactive); in the test with SF-539 it was 3.6 µM (inactive); in the test on TK-10 it was 13.1 µM (inactive); with SF-295 it was 3.12 µM (inactive); in the test with A498, 1.29 µM (inactive); in the test with COLO 205, 2.72 µM (inactive). The GI50 with EKVX is 2.17 µM (inactive); with Malme-3M it was 1.24 µM (inactive); in the test with UACC-257, > 22.6 µM (inactive); in the test with HOP-92, 2.03 µM (inactive); in the test with SF-268, 2.17 µM (inactive); with LOX IMVI, 1.88 µM (inactive). The GI50 with OVCAR-4 was 3.55 µM (inactive); in the test on HCT-15 it was 12 µM; in the test with HOP-62, 2.29 µM (inactive).

As to `COC(=O)C1=Cc2cc(OC)c(OC)cc2[C@H](c2ccc(OC)c(OC)c2)C1C(=O)OC` (some centres not stated), the GI50 was > 100 µM (inactive) in the test with HCC 2998; 69.8 µM (inactive) in the test with SF-539; > 100 µM (inactive) with TK-10; > 100 µM (inactive) in the test with SF-295; > 100 µM (inactive) in the test on A498; > 100 µM (inactive) in the test with COLO 205. For the same compound, the GI50 in the test with EKVX was > 100 µM (inactive); with Malme-3M, > 100 µM (inactive); with UACC-257 it was > 100 µM (inactive); with HOP-92, 45.8 µM (inactive); with SF-268, > 100 µM (inactive); in the test on LOX IMVI, > 100 µM (inactive). Besides, the GI50 with OVCAR-4 is > 100 µM (inactive); in the test on SK-MEL-28, > 100 µM (inactive); with HCT-15, 76 µM; with HOP-62, > 100 µM (inactive).

Turning to `CCCOc1ccc(/C=C/c2cc(OC)c(OC)c(OC)c2)cc1`, the GI50 with HCC 2998 was 3.02 µM (inactive); with SF-539 it was 0.269 µM (active); in the test on TK-10, 55.1 µM (inactive); in the test with SF-295, 0.185 µM (active); in the test with A498 it was 1.08 µM (active); with COLO 205 it was 0.298 µM (active). Further, the GI50 in the test on EKVX was 6.53 µM (inactive); in the test with Malme-3M it was 0.21 µM (active); in the test on UACC-257, 0.348 µM (active); in the test with HOP-92, 0.347 µM (active); in the test on SF-268 it was 0.618 µM (active); in the test on LOX IMVI it was 0.445 µM (active). Besides, the 50% growth inhibitory concentration (GI50) with OVCAR-4 was 0.971 µM (active); in the test with SK-MEL-28, 8.75 µM (inactive); in the test with HCT-15, 0.348 µM; in the test on HOP-62 it was 0.265 µM (active).

In the case of `COc1cc(C2(C)SCCCS2)cc(OC)c1OC`, the GI50 in the test on HCC 2998, in the test with SF-539, in the test with TK-10, in the test on SF-295, in the test on A498 and in the test with COLO 205 was > 100 µM (inactive) throughout. The GI50 in the test with EKVX, with Malme-3M, in the test with UACC-257, with HOP-92, in the test on SF-268 and in the test with LOX IMVI was > 100 µM (inactive) each time. Moreover, the GI50 is > 100 µM (inactive) in the test on OVCAR-4, > 100 µM (inactive) in the test with SK-MEL-28, > 100 µM with HCT-15 and > 100 µM (inactive) in the test on HOP-62.

In the case of `O=c1c2c(oc3ccccc13)-c1ccccc1OC2`, the GI50 in the test with HCC 2998 was > 100 µM (inactive); with SF-539 it was 25.2 µM (inactive); in the test on MCF7 it was > 100 µM (inactive); in the test on TK-10, > 100 µM (inactive); with SF-295 it was > 100 µM (inactive); in the test with COLO 205 it was > 10 µM (inactive). Further, the GI50 with EKVX is 53.2 µM (inactive); with Malme-3M, > 100 µM (inactive); in the test on UACC-257, > 100 µM (inactive); with NCI/ADR-RES, 29.3 µM (inactive); in the test on SF-268, 57.9 µM (inactive); with MDA-MB-435, > 100 µM (inactive). Further, the GI50 is 46 µM (inactive) in the test with LOX IMVI, > 100 µM with HCT-15 and 88.9 µM (inactive) in the test with HOP-62.

On to `Cc1ccc(C(=O)C(C)N)cc1` (configuration not stated), for which the GI50 in the test with HCC 2998, in the test on SF-539, in the test with TK-10, with SF-295, in the test with A498 and with COLO 205 was > 100 µM (inactive) each time. Further, the GI50 with EKVX, in the test with Malme-3M, with UACC-257, in the test with HOP-92, with SF-268 and with LOX IMVI was > 100 µM (inactive) each time. Also, the GI50 in the test on OVCAR-4 is > 100 µM (inactive); in the test on SK-MEL-28, > 100 µM (inactive); with HCT-15 it was > 100 µM; in the test with HOP-62, > 100 µM (inactive).

Take `O=c1/c(=C\c2ccccc2)sc2n1C(c1ccccc1)C1(O)CCCCC1N=2` (configuration not stated): the GI50 was 67.1 µM (inactive) with HCC 2998; 43.7 µM (inactive) with MCF7; > 100 µM (inactive) in the test on TK-10; 36.8 µM (inactive) in the test on A498; > 100 µM (inactive) in the test with Malme-3M; > 100 µM (inactive) in the test on UACC-257. The GI50 was > 100 µM (inactive) in the test on SF-268; > 100 µM (inactive) with MDA-MB-435; > 100 µM (inactive) with LOX IMVI; 50.6 µM (inactive) in the test on OVCAR-4; > 100 µM (inactive) with SK-MEL-28; > 100 µM with HCT-15. The GI50 with HOP-62 was > 100 µM (inactive).

`NCCCC(N/C=C1/N=C(c2ccccc2)OC1=O)C(=O)O` (configuration not stated): the GI50 with HCC 2998, with SF-539, in the test with TK-10, in the test with SF-295, in the test with A498 and in the test on COLO 205 was > 100 µM (inactive) throughout. The GI50 in the test on EKVX, with Malme-3M, with UACC-257, in the test on HOP-92, in the test with SF-268 and with LOX IMVI was > 100 µM (inactive) in each case. The GI50 is > 100 µM (inactive) in the test on OVCAR-4, > 100 µM (inactive) with SK-MEL-28, > 100 µM in the test with HCT-15 and > 100 µM (inactive) in the test on HOP-62.

Take `CNC(=O)NCNC(=O)NC`: the GI50 with HCC 2998, in the test with SF-539, in the test with TK-10, with SF-295, with A498 and with COLO 205 was > 100 µM (inactive) throughout. Further, the GI50 in the test on EKVX, in the test on Malme-3M, in the test on UACC-257, in the test with HOP-92, in the test with LOX IMVI and in the test on OVCAR-4 was > 100 µM (inactive) each time. For the same compound, the GI50 is > 100 µM (inactive) in the test on SK-MEL-28, > 100 µM in the test with HCT-15 and > 100 µM (inactive) in the test with HOP-62.
